Where two headings read alike, the source gives them in different places.
How the values were obtained:
[1] = system: patients; conditions: cited from earlier work
[2] = Everolimus whole blood concentrations and Bayesian estimation of PK parameters and trough concentrations; type: in vivo, human; conditions: for trough concentration estimate at grade 2 stomatitis: person
Method: Whole blood samples for the everolimus assay were collected at least two weeks after initiation of treatment or after the last everolimus dose change. Blood samples were collected at pre-dose, 1, 4, and 8 h after the everolimus dose. Blood everolimus concentrations were measured using a latex agglutination turbidimetric immunoassay ([Mori et al., 2014]) for the samples collected during November 2015 to September 2016 (n = 10) and using electrochemiluminescence immunoassay ([Blackburn et al., 1991]) for the samples collected during October 2016 to November 2018 (n = 8). Since these two techniques are highly correlated, the measured results were considered to be the same (r = 0.972) ([Sasano et al., 2016]).
PK parameters such as clearance (CL) and volume of distribution were estimated using Bayesian analysis in MW/Pharm++ software (Mediware, Prague, Czech Republic) ([Fuchs et al., 2013]). […] Ka was fixed for all analyses due to the limited data to characterize the absorption. The PK parameters were allometrically scaled to body weight to account for the effect of body size differences according to the following formula: Pi=Ppop×(BWi/BWstandard)^power where Pi was the estimated PK parameter for individual i, Ppop was the typical population value of the PK parameters. BWstandard was the standard body weight of 70 kg. The power coefficient was 0.75 for CL and intercompartment clearance and 1 for volume of distribution of the central compartment and the peripheral compartment.
Everolimus concentrations at steady-state or at the time of occurrence of dose-limiting toxicity was estimated using the Bayesian-estimated PK parameters of the individual patient.

[3] = cited from earlier work
[4] = five patients who did not experience DLTs
[5] = patients with breast, kidney and neuroendocrine cancer, ref Deppenweiler et al. (2017)

steady-state trough concentrations at the starting dose, range ([2]; 5 mg starting dose, six patients, approximated with Bayesian-estimated PK parameters): 11.3 to 29.6 ng/mL
estimated steady-state trough concentration when the dose was reduced and maintained without DLT, range ([2]; 13 patients who had DLTs): 5.7 to 24.2 ng/mL
median estimated steady-state trough concentration when the dose was reduced and maintained without DLT ([2]; 13 patients who had DLTs): 8.3 ng/mL
estimated trough concentration at the time of the DLTs, range ([2]; 13 patients with DLTs): 11.3 to 64.6 ng/mL
median estimated trough concentration at the time of the DLTs ([2]; 13 patients with DLTs): 19.0 ng/mL
CL, Mean ([2]; Bayesian estimate, steady state, Japanese breast cancer patients n = 18, scaled to 70 kg): 11.7 L/h/70 kg
estimated trough concentration after dose reduction ([2]; all patients except in one patient): higher than 6 ng/ml
steady-state trough concentration after restarting the treatment ([2]; case Figure 3A, 5 mg once daily, no DLTs): 8.4 ng/mL
trough concentration estimate at grade 2 stomatitis ([2]; case Figure 3A, 10 mg once daily, two weeks after initiation): 16.8 ng/mL
steady-state trough concentration after everolimus dose reduction ([2]; case Figure 3B, 5 mg every alternate day): 9.2 ng/mL
trough concentration estimate at grade 2 stomatitis ([2]; case Figure 3B, 5 mg once daily, day 90): 29.6 ng/mL
trough concentration, median [2, 4]: 19.0 ng/mL
trough concentration, range [2, 4]: 12.8 to 33.2 ng/mL
clearance (CL), range ([2]; inter-individual range, n = 18): 5.1–21.3 L/h/70 kg
volume of distribution of the central compartment, range ([2]; inter-individual range, n = 18): 9.9–103.6 L/70 kg
dose-adjusted trough concentrations, range ([2]; whole blood, steady state, doses 10, 5, 2.5 mg/day or 5 mg every alternate day): 1.3 to 6.5 ng/mL/mg/day
SMILES: CO[C@H]1C[C@@H]2CC[C@@H](C)[C@@](O)(O2)C(=O)C(=O)N2CCCC[C@H]2C(=O)O[C@H]([C@H](C)C[C@@H]2CC[C@@H](OCCO)[C@H](OC)C2)CC(=O)[C@H](C)/C=C(\C)[C@@H](O)[C@@H](OC)C(=O)[C@H](C)C[C@H](C)/C=C/C=C/C=C/1C [everolimus]
incidence of stomatitis ([1]; Japanese breast cancer patients, ref BOLERO-2 study): 88%
proportion of patients who required a second dose reduction to 2.5 mg daily ([1]; clinical study in Spain (6/90), ref Pascual et al., 2017): 7%
proportion of patients who required a dose reduction to 5 mg daily ([1]; clinical study in Spain (43/90), ref Pascual et al., 2017): 48%
incidence of stomatitis ([1]; patients with breast cancer, ref Alexopoulos et al., 2022, Ruíz-Falcó Rojas et al., Tedesco-Silva et al.): 20%–50%
incidence of stomatitis ([1]; renal transplant or tuberous sclerosis complex, ref Alexopoulos et al., 2022, Ruíz-Falcó Rojas et al., Tedesco-Silva et al.): approximately 10%
suggested target trough concentration ([3]; kidney transplant patients, calcineurin-inhibitor-free regimen, ref Shipkova et al., 2016): 6 to 10 ng/mL
trough concentration associated with increased risk of progression [3, 5]: lower than 11.9 ng/ml
trough concentration associated with increased risk of toxicity [3, 5]: higher than 26.3 ng/ml
trough concentration threshold for increased risk of overall severe toxicity ([3]; review, ref Falkowski and Woillard (2019)): higher than 20 ng/ml
increase of risk of toxicity ([3]; trough concentrations higher than 26.3 ng/ml, ref Deppenweiler et al. (2017)): 4 fold
increase of risk of progression ([3]; trough concentrations lower than 11.9 ng/ml, ref Deppenweiler et al. (2017)): 3 fold
suggested target trough concentration ([3]; tuberous sclerosis, ref Combes et al., 2018): 5 to 15 ng/mL
